Laboratory results taken from PMC7763113, “Design, synthesis, cytotoxic activity, and apoptosis inducing effects of 4- and N-substituted benzoyltaurinamide derivatives” (Turkish Journal of Chemistry, 2020).
Values joined by “and” are separate entries in the source; they are usually repeats but may differ in a detail not shown here. Equal entries are not always repeated. “Also recorded” adds a separate entry of the source. Where two headings read alike, the source gives them in different places.

Experiments:
[1] = tested on: SH-SY5Y human neuroblastoma cells; assay: MTT cytotoxicity assay, SH-SY5Y; assay type: cell-based; settings: mean ± SD, read-out: Cytotoxic activity IC50, SH-SY5Y
Text: (§1) The human neuroblastoma cells (SH-SY5Y), triple-negative breast cancer cells (MDA-MB-231), and human pancreatic cancer cells (Panc1) used in this study were purchased from the American Type Culture Collection (ATCC). The cells were suspended in complete Dulbecco’s modified Eagle medium (DMEM) (Life Technologies, Gibco BRL, Grand Island, NY) supplemented with 10% fetal bovine serum (FBS, Hyclone), 1% penicillin and streptomycin (100 U/mL, Invitrogen) and plated in cell culture dishes. The cultures were maintained at 37 °C in a 5% CO2 95% humidified atmosphere. After reaching 85% confluence, the cells were transferred to 96-well plates or culture dishes. For MTT assays, the cells were seeded into 96-well cell culture plates at a density of 2 × 10^3 cells per well and allowed to adhere for 24 h. The cells were treated with fresh medium containing experimental compounds (100, 10, 1 µM) and incubated in a 5% CO2 incubator for 48 and 72 h. For protein analysis, the cells were seeded into 6-well cell culture plates at a density of 0.5 x 10^6 cells/well and allowed to adhere to the surface for 24 h. The stock solutions of the test compounds (5 mM) were prepared in sterile DMSO, and these stocks were then appropriately diluted with the complete culture medium. DMSO levels were maintained below 1% in the test concentrations.
(§2) Briefly, following exposures, MTT (at a final concentration of 0.5 mg/mL) was added to each well, and plates were incubated for 2 h at 37 °C in a 5% CO2 humidified incubator. The reaction mixture was removed, and DMSO was added to each well. The plates were shaken at room temperature, and the absorbance was measured at 570 nm and 630 nm using a microplate reader (VersaMax, Molecular Devices, USA). Percent survival was plotted relative to vehicle control cells, which were normalized to 100% survival.

[2] = tested on: MDA-MB-231 triple-negative breast cancer cells; assay: MTT cytotoxicity assay, MDA-MB-231; assay type: cell-based, human; settings: mean ± SD, read-out: Cytotoxic activity IC50, MDA-MB-231
Text: as §1, §2

[3] = MTT cytotoxicity assay, MCF-10a (nontumorigenic); assay type: cell-based; settings: MCF-10a nontumorigenic mammary cells, MCF-10a nontumorigenic human mammary cell line, mean ± SD, read-out: Cytotoxic activity IC50, MCF-10a
Text: [The source words this procedure for another cell line and reports this cell line under the same test.] as §1, §2

[4] = tested on: PANC-1 human pancreatic cancer cells; assay: MTT cytotoxicity assay, PANC-1; assay type: cell-based; settings: mean ± SD, read-out: Cytotoxic activity IC50, PANC-1
Text: as §1, §2

[5] = tested on: BAX, Bcl-2, Bcl-xL, caspase-3 and caspase-9 expression in MDA-MB-231 cell line; assay: Western blot of apoptotic proteins, MDA-MB-231; assay type: cell-based, human; settings: for BAX protein levels: after only 24 h; for increase of caspase-9 activity: after only 48 h, relative to control
Method: (§3) The cells (0.5 × 10^6 cell/well) were seeded into 6 well plates and incubated for 24 h, and then treated with selected experimental compounds for 24 h and 48 h. Following incubation, the cells were washed with ice-cold 1X PBS and lysed in 1X cell lysis buffer. These lysates were quantified using the BCA protein assay. Then, the cell lysates were analyzed by western blot.
(§4) On a 12% (w/v) tris-glycine denaturing gel, 20 μg protein was separated by electrophoresis, and then transferred to a PVDF membrane. After blocking, the membrane was incubated with primary antibodies, anti-Bax rabbit monoclonal antibody, anti-Bcl-2 rabbit monoclonal antibody, anti-Bcl-xL rabbit monoclonal antibody, anti-caspase-3 rabbit monoclonal antibody, and anti-caspase-9 rabbit monoclonal antibody (1:1000, Cell Signaling Technology) at 4 °C overnight. Following the incubation, the membrane was incubated with an anti-β-actin mouse monoclonal antibody (1:1000, Cell Signaling Technology) at room temperature for 1 h. After washing, the membrane was incubated with peroxidase-conjugated secondary antibodies for 1 h to visualize labeled proteins by enhanced chemiluminescence.

[6] = tested on: BAX, Bcl-2, Bcl-xL, caspase-3 and caspase-9 expression in PANC-1 cell line; assay: Western blot of apoptotic proteins, PANC-1; assay type: cell-based, human; settings: at IC50, 24 and 48 h, vs control
Method: as §3, §4

PANC-1 cells = assay: Annexin V-FITC/PI flow cytometry, PANC-1; assay type: cell-based, human; settings: at cytotoxic concentrations, 48 h
Method: (§5) The cells were harvested after 48 h, washed with PBS, and analyzed using the Annexin V FITC/PI Apoptosis Detection kit (BioVision, Mountain View, CA, USA) with a benchtop flow cytometer (Accuri C6 flow cytometry, Becton Dickinson).

SH-SY5Y cells = assay: Annexin V-FITC/PI flow cytometry, SH-SY5Y; assay type: cell-based, human; settings: 48 h, control 3.2%
Method: as §5

MDA-MB-231 cells = assay: Annexin V-FITC/PI flow cytometry, MDA-MB-231; assay type: cell-based, human; settings: 48 h, control 1.2%
Method: as §5

SMILES | IC50 ([1]; Homo sapiens, SH-SY5Y) [µM] | melting point [°C] | IC50 ([2]; Homo sapiens, MDA-MB-231, MTT) [µM] | IC50 [3] [µM] | IC50 ([4]; Homo sapiens, PANC-1, MTT) [µM] | also measured
O=C(NCCS(=O)(=O)Nc1ccccc1)c1ccccc1 [Compound 1, N-(2-(N-phenylsulfamoyl)ethyl)benzamide] | 92.2 ± 1.5 | 123.7 to 124.7 | 140.4 ± 1.1 | 78.2 ± 1.6 | 86.7 ± 1.4 | 
O=C(NCCS(=O)(=O)Nc1ccccc1)c1ccc(Cl)cc1 [Compound 2, 4-Chloro-N-(2-(N-phenylsulfamoyl)ethyl)benzamide] | 29 ± 1.5 | 143.8 to 144.8 | 99.7 ± 1.1 | 232.9 ± 2.1 | 86.6 | BAX protein levels ([5]; Western blot): significantly increased; BAX expression [6]: significantly upregulated; Bcl-2 expression [6]: significantly upregulated; IC50 ([4]; MTT): 86.6 ± 1.6 µM
COc1ccc(C(=O)NCCS(=O)(=O)Nc2ccccc2)cc1 [Compound 3, 4-Methoxy-N-(2-(N-phenylsulfamoyl)ethyl)benzamide] | 57.4 ± 1.6 | 121.3 to 122.3 | 111 ± 1.2 | 98.9 ± 1.2 | 104 ± 1.6 | 
Cc1ccc(C(=O)NCCS(=O)(=O)Nc2ccccc2)cc1 [Compound 4, 4-Methyl-N-(2-(N-phenylsulfamoyl)ethyl)benzamide] | 75.9 ± 1.6 | 149.7 to 150.7 | 89.7 ± 1.5 | 132 ± 1.7 | 86.6 ± 1.4 | 
O=C(NCCS(=O)(=O)N1CCOCC1)c1ccccc1 [Compound 5, N-(2-(morpholinosulfonyl)ethyl)benzamide] | 118 ± 1.8 | 107 to 108 | 103 ± 1.7 | 89.6 ± 1.5 | 24.2 ± 2.1 | 
O=C(NCCS(=O)(=O)N1CCOCC1)c1ccc(Cl)cc1 [Compound 6, 4-Chloro-N-(2-(morpholinosulfonyl)ethyl)benzamide] | 80.6 | 162 to 163 | 79.1 | 70.7 ± 1.8 | 8.8 ± 2.1 | BAX protein levels ([5]; Western blot): significantly increased; increase of caspase-9 activity [5]: 1.06 fold; IC50 [1]: 80.6 ± 1.9 µM; IC50 ([2]; MTT): 136 ± 1.5 µM
COc1ccc(C(=O)NCCS(=O)(=O)N2CCOCC2)cc1 [Compound 7, 4-Methoxy-N-(2-(morpholinosulfonyl)ethyl)benzamide] | 134 ± 1.7 | 183.5 to 184.5 | 136 | 118 ± 1.2 | 1.2 ± 1.8 | apoptotic cell ratios (Annexin V-FITC/PI result) (PANC-1 cells): no significant changes; also recorded: negative; apoptotic cell ratios (SH-SY5Y cells): no positive results; percent of the positive apoptotic cells (MDA-MB-231 cells): no changes; caspase-3 expression (in words) ([5]; Western blot): lack of change; BAX protein levels ([5]; Western blot): significantly increased; decrease of Bcl-2 expression ([5]; after 24 and 48 h, compared to control): 2- to 3 fold; IC50 ([2]; MTT): 79 µM and 77 µM; BAX expression [6]: effectively upregulated; Bcl-2 expression [6]: did not show any effect; Bcl-xL expression [6]: slightly decreased; caspase-3 expression [6]: effectively upregulated; caspase-9 expression [6]: effectively upregulated
Cc1ccc(C(=O)NCCS(=O)(=O)N2CCOCC2)cc1 [Compound 8, 4-Methyl-N-(2-(morpholinosulfonyl)ethyl)benzamide] | 79.3 ± 1.6 | 174.2 to 175.2 | 81.5 ± 1.2 | 81.4 ± 1.3 | 120.3 ± 1.2 | 
NS(=O)(=O)CCNC(=O)c1ccccc1 [Compound 9, N-(2-sulfamoylethyl)benzamide] | 81.1 ± 2.1 | 162 to 163 | 99.8 ± 1.7 | 109 ± 1.1 | 85.5 ± 1.7 | 
NS(=O)(=O)CCNC(=O)c1ccc(Cl)cc1 [Compound 10, 4-Chloro-N-(2-sulfamoylethyl)benzamide] | 38.6 ± 1.6 | 158 to 159 | 77 | 172.1 ± 1.4 | 89.1 ± 1.7 | BAX protein levels ([5]; Western blot): significantly increased; increase of caspase-9 activity [5]: 1.12 fold; IC50 ([2]; MTT): 79.1 ± 1.3 µM; caspase-3 expression [6]: effectively increased
COc1ccc(C(=O)NCCS(N)(=O)=O)cc1 [Compound 11, 4-Methoxy-N-(2-sulfamoylethyl)benzamide] | 237.8 ± 1.7 | 176 to 177 | 114 ± 1.3 | 81.1 ± 1.4 | 83.8 ± 1.5 | 
Cc1ccc(C(=O)NCCS(N)(=O)=O)cc1 [Compound 12, 4-Methyl-N-(2-sulfamoylethyl)benzamide] | 79.5 ± 1.8 | 181 to 182 | 81 ± 1.6 | 106 ± 1.4 | 44.6 ± 1.9 | 
COc1ccc(NS(=O)(=O)CCNC(=O)c2ccccc2)cc1 [Compound 13, N-(2-(N-(4-methoxyphenyl)sulfamoyl)ethyl)benzamide] | 47.5 ± 1.5 | 110 to 111 | 76.1 ± 1.6 | 217.8 ± 1.3 | 17.9 ± 2.1 | 
COc1ccc(NS(=O)(=O)CCNC(=O)c2ccc(C)cc2)cc1 [Compound 16, N-(2-(N-(4-methoxyphenyl)sulfamoyl)ethyl)-4-methylbenzamide] | 32.7 ± 1.7 | 127 to 128 | 15.7 ± 1.9 | 132.9 ± 1.2 | 21.4 ± 1.7 | 
